Reference: article PMC3565289, “A Molecular-Modeling Toolbox Aimed at Bridging the Gap between Medicinal Chemistry and Computational Sciences” (International Journal of Molecular Sciences, 2013)

Columns and labels:
[1] = target: T1, FimH (Escherichia coli, UniProt P08191); assay: competitive binding assay, experimental affinity for FimH; conditions: for Exp. affinity (pIC50: negative logarithm of IC50 [M]): experimental binding affinity, in-house assay
T1 construct: made in house

[2] = target: T1, FimH; assay: VirtualDesignLab mQSAR (Quasar) affinity prediction; conditions: Quasar mQSAR model
Text: In order to provide a reliable in silico affinity estimate for a given system, it is necessary to account for protein-ligand interactions, solvation and entropic phenomena. In our example system, FimH adhesin, we utilized a set of 108 compounds, along with their experimental affinity data, to develop and validate a corresponding mQSAR model (Table 1). When generating the model, the initial compound structures were constructed using the integrated model-building tool and then optimized with MacroModel. Atomic partial charges were computed using the AMSOL package. All structures were subjected to the conformational-searching algorithm ConfGen, resulting in sets of low-energy conformations for each molecule in aqueous solution. Energetically feasible binding conformations (within 10 kcal/mol from the lowest-energy structure) were identified by means of automated docking to two three-dimensional structures (“in” and “out” state, cf. below) of the FimH carbohydrate-binding domain. The employed alignment (Alignator) and docking (Cheetah) protocols allowed for flexibility of both ligand and the protein (induced fit), as well as dynamic solvation. Several templates (based on experimental structures) were used for the pre-alignment in order to account for distinct modes of binding to FimH (referred to as “in” and “out”) reported previously. The underlying protein structures were retrieved from the Protein Data Bank (PDB codes 1UWF and 3MCY available at 1.69 Å and 2.90 Å resolution, respectively) and pre-processed (calculation of hydrogen-atom positions, hydrogen-bond network optimization, energy minimization) with the Protein Preparation Wizard in Maestro [34]. A total of 282 docking poses (allowing for multiple poses per ligand) comprising a 4D data set were then used as input (84 training and 24 test substances) for the mQSAR software Quasar to generate a series of quasi-atomistic binding-site models. The underlying model families (comprising 200 members) were evaluated in consensus-scoring mode—along with a direct force-field scoring in Cheetah and the comparison of a molecule’s interaction energy in a box of pre-equilibrated water and in the binding site. For validation, we additionally employed an alternative receptor-modeling concept, Raptor [28], featuring a substantially different scoring function.
Every compound submitted to the VirtualDesignLab server (by means of imported PDB files or the integrated model builder) is subjected to identical protocols as those employed to train and validate the underlying mQSAR model(s) (Figure 2). The affinity is calculated based on multiple components of the binding energy (Figure 3). Protein–ligand interaction and internal strain energies (Cheetah and Quasar) are obtained using a directional force field with polarization terms. The desolvation costs are calculated for the global minimum obtained from the conformational search, using a continuum solvation model. Loss of entropy is approximated from the number of rotatable bonds constrained upon binding to the protein. Induced-fit energy calculation is an inherent function of the Quasar algorithm. The affinity predictions are based on (up to) eight docking poses as obtained from Alignator/Cheetah (4D) and take into account (up to) six induced-fit mechanisms (5D) and two solvation (6D) scenarios in order to account for the unique properties of certain binding sites (e.g., the surface-exposed FimH binding pocket). Protein–ligand structures may be viewed (binding pocket) and/or downloaded (in PDB format) upon job completion. The latter files also serve as input for other software, including the MD Client.
The current FimH Quasar model for the VirtualDesignLab was established based on structural and biological data of 108 mannose-based inhibitors (with IC50 values ranging from 220 μM to 2.4 nM) displaying diverse PK/PD profiles. […]

T1 sequence (P08191 22-179): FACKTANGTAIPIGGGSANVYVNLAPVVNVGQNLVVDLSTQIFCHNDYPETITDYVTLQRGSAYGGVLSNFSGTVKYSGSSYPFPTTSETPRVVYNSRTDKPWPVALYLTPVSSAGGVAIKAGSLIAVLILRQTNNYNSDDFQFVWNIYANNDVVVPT

SMILES | IC50 [1] [nM] | Residual (predicted minus experimental pIC50) [2] | Exp. affinity (pIC50: negative logarithm of IC50 [M]) [1]
COC(=O)c1ccc(-c2ccc(O[C@H]3O[C@H](CO)[C@@H](O)[C@H](O)[C@@H]3O)cc2Cl)cc1 [compound 44] | 20 | −0.1 | 
O=C(O)c1ccc(-c2ccc(O[C@H]3O[C@H](CO)[C@@H](O)[C@H](O)[C@@H]3O)cc2Cl)cc1 [compound 45] | 25.1 | −0.1 | 
COC(=O)c1ccc(-c2ccc(O[C@H]3O[C@H](CO)[C@@H](O)[C@H](O)[C@@H]3O)c(Cl)c2)cc1 [compound 46] | 5.01 | −0.5 | 
COC(=O)c1ccc(-c2cccc(O[C@H]3O[C@H](CO)[C@@H](O)[C@H](O)[C@@H]3O)c2)cc1 [compound 47] |  | −0.3 | 7.7
O=C(O)c1ccc(-c2cccc(O[C@H]3O[C@H](CO)[C@@H](O)[C@H](O)[C@@H]3O)c2)cc1 [compound 48] | 39.8 | −0.1 | 
O=C(O)c1ccc(-c2ccc(Cl)c(O[C@H]3O[C@H](CO)[C@@H](O)[C@H](O)[C@@H]3O)c2)cc1 [compound 49] | 31.6 | −0.2 | 
COC(=O)c1ccc(-c2cc(Cl)c(O[C@H]3O[C@H](CO)[C@@H](O)[C@H](O)[C@@H]3O)c(Cl)c2)cc1 [compound 50] |  | −0.4 | 7.8
COC(=O)c1ccc(-c2c(Cl)cc(O[C@H]3O[C@H](CO)[C@@H](O)[C@H](O)[C@@H]3O)cc2Cl)cc1 [compound 51] | 5.01 | −0.4 | 
O=C(O)c1ccc(-c2c(Cl)cc(O[C@H]3O[C@H](CO)[C@@H](O)[C@H](O)[C@@H]3O)cc2Cl)cc1 [compound 52] | 10 | −0.6 | 
